Data: patent publication US7687523B2, “3-heteroaryl-3,9-diazabicyclo[3.3.1]nonane derivatives as nicotinic acetylcholine receptor agonists” (Neurosearch A/S, priority 2006, dated 2010)
pIC50: −log10 of the molar value. Read-outs that look alike come from different tables or passages of the source.

Molecular target: nAChRs comprised of α4 and β2 subunits (Rattus norvegicus, UniProt P09483+P12390)
Experiment: In vitro inhibition of 3H-cytisine binding
Text: In Vitro Inhibition of ^3H-Cytisine Binding
Molecular biology studies have elucidated that there are at least ten nicotinic receptor genes in the brain. The predominant subtype with high affinity for nicotine is comprised of α4 and β2 subunits. nAChRs of the latter type can selectively be labelled by the nicotine agonist ^3H-cytisine.
A standard assay for determining in vitro inhibition of ^3H-cytisine binding is described in e.g. WO 02/096911. When subjected to this test the compounds of the invention show inhibitory activity on the micromolar or sub-micromolar range.

Sequence of nAChRs comprised of α4 and β2 subunits (P09483 31-630): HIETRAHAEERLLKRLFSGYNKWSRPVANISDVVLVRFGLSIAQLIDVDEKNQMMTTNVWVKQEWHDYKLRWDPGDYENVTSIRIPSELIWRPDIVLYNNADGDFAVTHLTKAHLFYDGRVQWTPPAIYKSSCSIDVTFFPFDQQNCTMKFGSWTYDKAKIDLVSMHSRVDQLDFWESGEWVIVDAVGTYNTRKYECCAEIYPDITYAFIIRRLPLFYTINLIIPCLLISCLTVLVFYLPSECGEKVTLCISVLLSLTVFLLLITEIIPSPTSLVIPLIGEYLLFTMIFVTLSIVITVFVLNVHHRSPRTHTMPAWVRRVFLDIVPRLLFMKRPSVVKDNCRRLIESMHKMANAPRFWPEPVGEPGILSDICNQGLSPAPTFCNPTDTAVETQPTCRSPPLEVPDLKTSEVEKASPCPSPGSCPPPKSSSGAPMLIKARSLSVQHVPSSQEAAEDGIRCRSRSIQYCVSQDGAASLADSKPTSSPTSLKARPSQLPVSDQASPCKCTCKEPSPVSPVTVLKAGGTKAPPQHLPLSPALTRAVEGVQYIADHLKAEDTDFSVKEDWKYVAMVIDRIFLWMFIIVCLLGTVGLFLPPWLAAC
Sequence of nAChRs comprised of α4 and β2 subunits (P12390 25-500): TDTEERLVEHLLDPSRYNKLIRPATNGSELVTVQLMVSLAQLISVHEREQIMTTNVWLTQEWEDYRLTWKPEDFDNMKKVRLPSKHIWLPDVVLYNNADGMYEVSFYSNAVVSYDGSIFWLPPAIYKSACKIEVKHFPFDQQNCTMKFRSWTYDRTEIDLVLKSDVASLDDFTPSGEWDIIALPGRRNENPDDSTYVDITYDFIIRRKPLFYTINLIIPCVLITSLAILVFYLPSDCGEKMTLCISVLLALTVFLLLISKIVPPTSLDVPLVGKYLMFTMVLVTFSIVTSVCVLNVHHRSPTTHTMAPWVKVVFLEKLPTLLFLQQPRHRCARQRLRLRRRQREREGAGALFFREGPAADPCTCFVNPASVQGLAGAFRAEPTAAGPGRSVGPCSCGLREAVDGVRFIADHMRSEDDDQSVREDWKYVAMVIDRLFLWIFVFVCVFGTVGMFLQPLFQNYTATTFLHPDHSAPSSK

Q: With `CN1C2CCCC1CN(c1cncc(Cl)c1)C2` [Compound A1, 3-(5-Chloro-pyridin-3-yl)-9-methyl-3,9-diaza-bicyclo[3.3.1]nonane] as the compound, how does the pIC50 read?
A: The pIC50 was 8.20.

Q: With `c1cncc(N2CC3CCCC(C2)N3)c1` [Compound B1, 3-Pyridin-3-yl-3,9-diaza-bicyclo[3.3.1]nonane] as the compound, how does the pIC50 read?
A: The pIC50 was 8.60.

Q: `CN1C2CCCC1CN(c1cccnn1)C2` [Compound C1, 9-Methyl-3-pyridazin-3-yl-3,9-diaza-bicyclo[3.3.1]nonane] was tested. Which pIC50 (3H-cytisine as radioligand, standard assay as described in WO 02/096911, read-out: In vitro Inhibition of 3H-cytisine Binding IC50) did it give?
A: The pIC50 was 6.34.
